From patent US20070155827A1, “USE OF BENZO-FUSED HETEROCYCLE SULFAMIDE DERIVATIVES FOR THE TREATMENT OF DEPRESSION” (priority 2005, published 2007)
Entries after “also recorded” stand apart in the source; their conditions may differ.

What was measured:
[1] = system: submissive rats; assay: Dominant-Submissive Relations (DSR) assay: Reduction of Submissive Behavior Model (RSBM) of depression; format: in vivo, Male Sprague Dawley rats
Protocol: The DSR assay is divided into two models: Reduction of Dominant Behavior Model (RDBM) of mania and Reduction of Submissive Behavior Model (RSBM) of depression. The RDBM, wherein the dominant animals are treated with test compound, is predictive of the ability of the test compound to treat mania. The RSBM, wherein the submissive animals are treated with test compound, is predictive of the ability of the test compound to treat depression.
Male Sprague Dawley rats (140 to 160 g) from Charles River Laboratories Wilmington, Mass. were used in this assay. Shipments of rats were received at two-week intervals. Each shipment went through five-day quarantine, one-week acclimation period, and one-week selection process, followed by five-weeks of drug or vehicle treatment to those pairs selected.
Rats were housed four per cage. Access to food was restricted to one hour per day after testing on Monday through Thursday. After testing on Friday, rats had free access to food until being fasted again on Sunday. At no time were the rats deprived of water. The food deprivation periods used had little effect on weight gain as the average weight of rats was about 300 g at the end of the study. At the conclusion of experiment rats were sacrificed by decapitation, the trunk blood and brains were collected for in vitro experiments and drug concentration measurements.
The basic testing apparatus consisted of two chambers connected with a tunnel only large enough to allow one rat to pass through at a time. On the floor, at the mid-point of the tunnel was a container of sweetened milk. This basic apparatus was replicated, so that a total of four pairs of rats can be video tracked simultaneously. The camera can distinguish rats marked by different colors. Thus, the rats' heads were colored for the purpose of video tracking, red in one cage and yellow in the other cage. Only one animal at a time can have comfortable access to the feeder, but both animals can drink milk during the five-minute daily session. During the five-minute daily sessions, time spent in the feeder zone by each rat was recorded by the video tracking software and saved into a text file.
The test began with a random assignment of rats into pairs. Each member of a pair was placed in an opposite chamber of the testing apparatus. The time spent in the feeder zone by each animal was recorded. During the first week (five days) of testing the animals habituate to the new environment. Dominance was assigned to the animal with the highest score during the second week of testing if three criteria were achieved. First, there must have been a significant difference (two-tailed t-test, P<0.05) between the average daily drinking scores of both animals. Second, the dominant animal score must have been at least 25% greater than the submissive animal's score. Finally, there must have been no “reversals” during the pair selection week where the putative submissive rat out-scored its dominant partner on isolated occasions. Ideally there were minimal reversals during the acclimation week as well. About twenty-five to thirty-three percent of the initial animal pairs achieved these criteria and only these pairs were continued in the study.
Significant differences between time spent on the feeder by dominant and submissive rats were determined by ANOVA using GraphPad Prism software (GraphPad Software, Inc. San Diego, Calif.) followed by a two-tailed t-test (P<0.05). Comparisons were made between treatment groups using normalized dominance level values in paired animals. The dominance level is a value that measures social relation between paired subjects. Dominance level (DL)=FTD−FTS where FTD is the feeder time of dominant rats and FTS is the feeder time of submissive rats. The normalization was conducted according to the formula: Dominance Level (week n in %)=(Dominance Level (week n))/(Dominance Level (week 2) […]

[2] = system: Male Wistar rats; assay: Chronic Mild Stress Model (Chronic), sucrose consumption; format: in vivo
Source text: In the chronic mild stress (CMS) model rats subjected to a variety of mild stressors for a prolonged period of time show, among other behavioural, biochemical and physiological impairments, a substantial decrease in their responsiveness to rewarding stimuli. This deficit is usually monitored by a decrease in the consumption of the 1% sucrose solution, but can also be seen in other tests, such as place preference conditioning or intracranial self-stimulation. Since the subsensitivity to reward appears to reflect anhedonia (inability to experience pleasure), which is a core symptom of major depressive disorders, the CMS procedure may serve as a suitable research tool in studies into the mechanisms of antidepressant action.
Male Wistar rats were brought into the laboratory two months before the start of the experiment. Except as described below, the animals were singly housed with food and water freely available, and were maintained on a 12-h light/dark and in a constant temperature (22±2° C.) and humidity (50±5%) conditions.
The animals were first trained to consume a 1% sucrose solution; training consisted of eight 1 h baseline tests in which sucrose was presented, in the home cage, following 14 h food and water deprivation; the sucrose intake was measured by weighing pre-weighed bottles containing the sucrose solution, at the end of the test. Subsequently, sucrose consumption was monitored, under similar conditions, at weekly intervals throughout the whole experiment.
On the basis of their sucrose intakes in the final baseline test, the animals were divided into two matched groups. One group of animals was subjected to the chronic mild stress procedure for a period of 7 consecutive weeks. Each week of stress regime consisted of: two periods of food or water deprivation, two periods of 45 degree cage tilt, two periods of intermittent illumination (lights on and off every 2 h), two periods of soiled cage (250 ml water in sawdust bedding), one period of paired housing, two periods of low intensity stroboscopic illumination (150 flashes/min), and three periods of no stress. All stressors were 10-14 h of duration and were applied individually and continuously, day and night. Control animals were housed in separate rooms and had no contact with the stressed animals. They were deprived of food and water for the 14 h preceding each sucrose test, but otherwise food and water were freely available in the home cage.
The drugs were administered at approx. 10.00 and the weekly sucrose tests were carried out 24 h following the last drug injections. […]
All results obtained in this study were analyzed by multiple analyses of variance with three between-subjects factors (stress/control, drug treatments and successive sucrose tests). […]

NS(=O)(=O)NC[C@H]1COc2cc(Cl)ccc2O1 [Compound #8, (2S)-(−)-N-(6-Chloro-2,3-dihydro-benzo[1,4]dioxin-2-ylmethyl)-sulfamide]
Dominance Level (DL) values vs vehicle control ([1]; 2.5 mg/kg p.o.): did not significantly differ from control
consistent loss of significance between dominant and submissive rats feeder time ([1]; 2.5 mg/kg p.o.): no consistent loss of significance
Dominance Level (DL) values vs vehicle control ([1]; 12.0 mg/kg p.o.): significantly different from vehicle treated controls after the second, fourth and fifth week of treatment
Dominance Level (DL) values vs vehicle control ([1]; 60 mg/kg p.o.): significant difference in DL values relative to vehicle starting at the first week and continuing through the treatment duration of 5 weeks
difference in DL values with fluoxetine treated group ([1]; 60.0 mg/kg p.o. vs fluoxetine 10 mg/kg): statistically significant at p<0.001 after first week and p<0.05 after second week of treatment
Dominance Level (DL) values vs vehicle control ([1]; 120 mg/kg p.o.): significantly different from the control group after first week, however, this significance dissipated after the second week of treatment
consistent loss of significance between dominant and submissive rats feeder time ([1]; 120.0 mg/kg p.o.): no consistent loss of significance
loss of significant difference between dominant and submissive rats ([1]; Compound #8 p.o., all doses used (2.5, 12, 60, 120 mg/kg)): lost after the first week of treatment
increased submissiveness during first week of treatment (effect seen with fluoxetine) ([1]; Compound #8 treated groups, p.o.): did not show this effect
ED50 ([1]; Rattus norvegicus, po, RSBM, calculated): 6.6 ± 0.8 mg/kg
reduction of submissive behavior ([1]; p.o. once a day for 5 weeks to submissive rats, 2.5-120 mg/kg): reduce submissive behavior in a dose-dependent manner; also recorded: reduced submissive behavior
Treatment effect on sucrose intake vs vehicle, control animals ([2]; controls, 12, 30 or 60 mg/kg once daily i.p. for five weeks): did not cause significant Treatment effects
Treatment effect on sucrose intake vs vehicle, stressed animals ([2]; stressed, 12, 30 or 60 mg/kg once daily i.p. for five weeks): did not cause significant Treatment effects
